In patent US10792301B2, “Therapeutic polysaccharide midi-GAGR and related materials and methods” (priority 2015, dated 2020):

Assays:
[1] = test system: Rat embryonic cortical neurons; experiment: Neuritic atrophy caused by 4-HNE, Scholl ring analysis; type: cell-based; settings: pre-treatment 2 days (1 μM; ascorbate 100 μM), then 25 μM 4-HNE 1 day
Method: Rat embryonic cortical neurons were treated with mock (FIG. 11C), 1 μM HA-GAGR (high acyl gellan gum), 1 μM dextran, 100 μM ascorbate or 1 μM midi-GAGR (FIG. 13A) for 2 days and then with 25 μM 4-hydroxynonenal (4-HNE), a lipid peroxide, for 1 day. After fixation, neurons were immunostained with anti-synaptophysin antibody (green) and rhodamine-phalloidin (actin: red). Scholl ring analysis was performed.

[2] = test system: primary mouse cortical neurons (E17, DIV4); experiment: Neurite outgrowth in primary mouse cortical neurons; type: cell-based; settings: 2 days; 1 μM midi-GAGR, dextran, alginate; 0.1 μM LA-GAGR; 0.01 μM HA-GAGR
Method: To analyze the effect of polysaccharides on neurite outgrowth, primary mouse cortical neurons were treated with vehicle (H2O) or 1 μM of dextran, alginate, or midi-GAGR, 0.01 μM of HA-GAGR, or 0.1 μM of LA-GAGR for 2 days prior to immunocytochemistry using anti-α-tubulin antibody and secondary Alexa488nm antibody. An etched grid coverslip containing 200 numbered boxes was used to select neurons objectively for image acquisition and analysis. A total of 24 boxes were randomly selected per treatment group. All the neurons having total neurite length longer than 4 times of the diameter of neuron cell body were chosen for image analysis. The total length of the neurites of each neuron was measured using Metamorph and used to calculate average total neurite length. To examine the effect of polysaccharides on the phosphorylation (activation) of nuclear CREB, neurons were stained with anti-pCREB antibody (Abcam & Santa Cruz biotechnologies, 2nd antibody with Alexa568nm), anti-α-tubulin antibody (Sigma, 2nd antibody with Alexa488nm), and DAPI (Sigma) after two-day incubation with vehicle (H2O) or 1 μM of dextran, alginate, or midi-GAGR, 0.01 μM of HA-GAGR, or 0.1 μM of LA-GAGR. […] The images of neurons on coverslips were taken by confocal microscopy at the same gain (850), offset (˜0.01) and exposure time (2 sec). The intensity of the staining of nuclear pCREB was measured using Metamorph and used to calculate average intensity. In addition, the phosphorylation of CREB in the cytosols of mouse cortical neurons treated with polysaccharides were detected by immunoblotting. Primary mouse neurons were dissected from 16 mouse embryos (E17) and plated in the wells of 6-well plates (1×10^6 cells/well), differentiated for 6 days, and treated with polysaccharides for 48 h. […] The protein bands on blots recognized by anti-pCREB (Santa Cruz Biotechnologies) and anti-CREB antibodies were detected on Amersham Hyperfilm™ ECL films (GE Healthcare Life Science) using SuperSignal® West Pico Chemiluminescent Substrate (Thermo Scientific).

dextran
neurites in the presence of 4-HNE (neuritic atrophy) [1]: lost neuritis
fold change in average total neurite length compared to vehicle [2]: did not enhance neuritogenesis
